In assay [1] the test system is WEHI 231 (mouse, B-cell lymphoma). The assay can be described thus: Cell growth inhibition assay, WEHI231. The assay is classed as cell-based. Conditions: five days of incubation, XTT; read-out: IC50 WEHI231 (ms). On the procedure: (§1) In this study, compounds 1-8 were screened in vitro against a panel of four mouse lymphoma cell lines and two human lymphoma cell line for cell growth inhibition activity. Following treatment, half maximal inhibitory concentrations (IC50) were determined with the objective of selecting the most efficacious compounds for evaluation of in vitro absorption, distribution, metabolism, and excretion (ADME) screening.
(§2) Similarly, human Burkitt's lymphoma Ramos cells (ATCC CRL-1596) were grown in suspension in Roswell Park Memorial Institute (RPMI) 1640 medium supplemented with 10% fetal bovine serum (FBS), 10 mM HEPES KOH pH 7.4, and 2 mM sodium pyruvate. Mouse P388D1 (ATCC CCL-46) and WR19L (ATCC TIB-52) cells were grown in suspension in Dulbecco's Modified Eagle Medium (DMEM) with 10% fetal bovine serum (FBS), 10 mM HEPES, and 2 mM sodium pyruvate. Mouse WEHI231 (ATCC CRL-1702) and EL4 (ATCC TIB-39) cells were grown in suspension in DMEM with 10% fetal bovine serum (FBS), 10 mM HEPES KOH pH 7.4, 2 mM sodium pyruvate, and 0.05 mM β-mercaptoethanol. All cells were maintained at 37° C. in an atmosphere of 5% CO2 in air. Logarithmically growing cells were routinely sub-cultured twice weekly. Briefly, cells were collected by centrifugation, resuspended in pre-warmed media, and diluted 1:10 into a 75 cm^2 flask.
(§3) Cells were subcultured and 4×10^3 cells (in 50 μL) were transferred to each well in a Falcon 96-well tissue culture plate. Exemplary compounds were dissolved in pure dimethyl sulphoxide (DMSO) at a concentration of 10 mM. From this 10 mM stock solution, 12 successive serial dilutions were made in DMSO (2.5 fold dilutions), ranging from 0.52 μM to 10 mM. Using these stock dilutions, 5 μL of each were added to 500 μL of media, and 50 μL of this was added to the cells. The final concentrations being tested ranged from 0.0026 μM to 50 μM. Each concentration was tested in triplicate, and DMSO and untreated cells were also included as controls. After five days of incubation with the compounds, cell viability was determined using the XTT cell proliferation kit (Roche, Cat. No. 11 465 015 001). Following the XTT protocol, 4.5-24 hours after addition of the reagent, the plates were read in a μQuant 96-well plate spectrophotometer (Biotek Instruments Inc.) and the results analyzed to determine the IC50.
On the technique in general: Tetrazolium assays rely on reduction of a dye to a coloured formazan, in cell work by metabolically active cells.

Assay [2] concerns human colon carcinoma cells KM12. Kind of assay: XTT cell proliferation assay, KM12. Format: cell-based. Conditions: 5 days incubation, read-out: Antiproliferative activity, Colon KM12. As for the experimental part:
(§4) Exemplary compounds 1-8 were tested for anti-cancer activity in vitro using human renal cancer cells (ACHN and CAK-1), human pancreatic cells (BXPC3 and SU-86-86), human prostate cancer cell (DU14), human colon carcinoma cells (HT-29 and KM-12), leukemia cells (HL60), brain cancer/tumour cells (SK-A-AS, U87-MG), and human non-small cell lung cancer cells (H460). Compounds 1-8 are the specific embodiments of Formula (I) and Formula (IV) as described above in this application.
(§5) The cells were maintained as a monolayer in a growth medium; McCoy's 5A modified medium (Sigma, St. Louis, Mo.), supplemented with 2 mM L-glutamine (Gibco, Grand Island, N.Y.), 10% fetal bovine serum (FBS) (Multicell, WISENT Inc. St-Bruno, QC), antibiotic-antimycotic (Multicell), at 37° C. in a 5% CO2-humidified incubator. Cells were transferred onto 150 mm tissue culture plates and grown until sub-confluency (70-80%) prior to their use. The in vitro antiproliferative activity of compounds was evaluated by incubating the cells with varying concentrations of exemplary compounds as shown in Table 1 for 5 days. The efficacy of these compounds in this cell proliferation assay was measured based in the ability of live cells to reduce the tetrazolium salt XTT to orange colored compounds of formazan (XTT cell proliferation kit IT, Roche Applied Science, Montreal, QC).

The subject of assay [3] is human non-small cell lung cancer cells H460. Kind of assay: XTT cell proliferation assay, H460. The assay is classed as cell-based. Conditions: 5 days incubation, read-out: Antiproliferative activity, NSCLC H460. On the procedure: as §4, §5
In assay [4] the test system is non-small cell lung cancer cells H226. Kind of assay: XTT cell proliferation assay, H226. To be noted: 5 days incubation, read-out: Antiproliferative activity, NSCLC H226. Format: cell-based, human. On the procedure:
[The procedure below names another cell line; the source lists this cell line under the same test.] as §4, §5

Assay [5] deals with renal cell carcinoma (ACHN). The assay can be described thus: Renal cell carcinoma (ACHN) xenograft model. Format: in vivo, CD-1 female nude mice. Conditions: vs vehicle-treated control, FIG. 4. On the procedure:
The ability of compound 1 to inhibit colon tumour growth in vivo was tested as follows. CD-1 female nude mice (7 mice per treatment group, 6-7 weeks) were injected […] with human colon adenocarcinoma cells HT-29 cells (3×10^6 cells in 0.1 ml PBS). Treatment of the mice with vehicle or 50 mg/kg/d of […] was initiated 5 days post-inoculation (size of tumours=20-40 mm^3) for 7-day cycles of five days followed by a 2 day break for 5 weeks. The size of the tumours was measured over the course of the experiment using calipers, and the weight of the tumours was measured after the animals were sacrificed.
The ability of compound 1 to inhibit renal cell carcinoma growth (see FIG. 4), to inhibit pancreatic carcinoma growth (FIG. 5), to inhibit large-cell lung carcinoma cell growth (FIG. 6), and to inhibit Glioblastoma cell growth (FIG. 7) was also tested following the general procedure as discussed above.

The test system of assay [6] is brain cancer/tumour cells SK-N-AS. Kind of assay: XTT cell proliferation assay, SK-N-AS. Format: cell-based, human. To be noted: 5 days incubation, read-out: Antiproliferative activity, Brain SK-N-AS. On the procedure:
as §4, §5

The subject of a further assay is EL4 (mouse, lymphoma). Kind of assay: Cell growth inhibition assay, EL4. The assay is classed as cell-based. Conditions: five days of incubation, XTT; read-out: IC50 EL4 (ms). As for the experimental part: as §1, §2, §3
Assay [7] relates to human colon carcinoma cells HT-29. Kind of assay: XTT cell proliferation assay, HT-29. Format: cell-based. To be noted: 5 days incubation, read-out: Antiproliferative activity, Colon HT-29. As for the experimental part: as §4, §5
Assay [8] concerns non-small cell lung cancer cells HOP-62. The assay can be described thus: XTT cell proliferation assay, HOP-62. The assay is classed as cell-based, human. To be noted: 5 days incubation, read-out: Antiproliferative activity, NSCLC HOP-62. On the procedure:
[The procedure below names another cell line; the source lists this cell line under the same test.] as §4, §5

The next assay relates to WR19L (mouse, lymphoma). The assay can be described thus: Cell growth inhibition assay, WR19L. The assay is classed as cell-based. To be noted: five days of incubation, XTT; read-out: IC50 WR19L (ms). As for the experimental part: as §1, §2, §3
Assay [9] deals with human renal cancer cells ACHN. The assay can be described thus: XTT cell proliferation assay, ACHN. The assay is classed as cell-based. To be noted: 5 days incubation, read-out: Antiproliferative activity, Kidney ACHN. On the procedure:
as §4, §5

The subject of assay [10] is non-small cell lung cancer cells EKVX. The assay can be described thus: XTT cell proliferation assay, EKVX. Format: cell-based, human. Conditions: 5 days incubation, read-out: Antiproliferative activity, NSCLC EKVX. On the procedure: [The procedure below names another cell line; the source lists this cell line under the same test.] as §4, §5
In assay [11] the test system is human Burkitt's lymphoma Ramos cells. Kind of assay: Cell growth inhibition assay, Ramos. Format: cell-based. To be noted: five days of incubation, XTT; read-out: IC50 Ramos (hs). As for the experimental part: as §1, §2, §3

`FC1(F)Oc2ccc(-c3nc4c5cccnc5c5ncccc5c4[nH]3)cc2O1` [Compound 1]: the IC50 in assay [1] was 5.2 nM; in assay [2], 330 nM; in assay [3], 160 nM; in [4], 410 nM; in assay [6], 210 nM; in the assay with EL4 (mouse, lymphoma) it was 483 nM. Also, the IC50 amounted to 350 nM in [7]; 210 nM in assay [8]; 82 nM with WR19L (mouse, lymphoma); 170 nM in assay [9]; 220 nM in [10]; 163 nM in assay [11]. Besides, in assay [5], the “inhibition of tumour growth, as measured by tumour size” value is on record as “able to inhibit tumour growth”.

Values taken from US9309247B2, “2-substituted imidazo[4,5-D]phenanthroline derivatives and their use in the treatment of cancer” (Aptose Biosciences Inc., priority 2013, dated 2016).
